System: ddY mice
Assay: Oxylipin analysis of plasma and brain regions of juvenile offspring after maternal glyphosate exposure
Format: in vivo, mouse
Settings: juvenile offspring (P28), maternal 0.095% glyphosate
From the text: Collection of blood and brain samples and oxylipin analysis. Water or 0.095% glyphosate was given to pregnant mice from E5 to P21, as described above. The male offspring were separated from their mothers at weaning (P21). At juvenile (P28) stage, mice were deeply anesthetized with isoflurane and plasma was collected. Subsequently, brains were removed from the skulls. For Western blot analysis, brain regions such as prefrontal cortex (PFC), hippocampus, and striatum, were dissected from brain on ice. The samples were stored at −80° C. before assay. For oxylipin analysis, plasma was collected after isoflurane anesthesia at juvenile (P28) stage. Subsequently, PFC, hippocampus, and striatum were dissected from brain on ice, and the samples were stored at −80° C. before assay. Measurement of eicosanoids in the plasma and brain regions was performed at UC Davis using the previous method (4).

SMILES: O=C(O)CNCP(=O)(O)O [glyphosate]
- 4,5-DiHDPE level (PFC): 1.083 ± 0.242 pmol/g
- 5(6)-EpETrE level (PFC): 3862.881 ± 1353.639 pmol/g
- 5,6-DiHETrE level (PFC): 0.699 ± 0.113 pmol/g
- 5-HEPE level (PFC): 1.760 ± 0.234 pmol/g
- 5-HETE level (PFC): 18.560 ± 1.797 pmol/g
- 5-oxo-ETE level (PFC): 142.497 ± 16.459 pmol/g
- 6-keto-PGF1a level (PFC): 88.691 ± 7.208 pmol/g
- 7(8)-EpDPE level (PFC): 3640.707 ± 1175.101 pmol/g
- 8(9)-EpETE level (PFC): 1.992 ± 0.638 pmol/g
- 8(9)-EpETrE alt level (PFC): 447.323 ± 148.765 pmol/g
- 8(9)-EpETrE level (PFC): 12713.4 ± 6124.0 pmol/g
- 8-HEPE level (PFC): 0.959 ± 0.080 pmol/g
- 8-HETE level (PFC): 7.904 ± 0.840 pmol/g
- 9(10)-EpOME level (PFC): 57.775 ± 18.915 pmol/g
- 9,10,13-TriHOME level (PFC): 31.772 ± 4.440 pmol/g
- 9,12,13-TriHOME level (PFC): 52.749 ± 6.979 pmol/g
- 9-HETE level (PFC): 1.826 ± 0.587 pmol/g
- 9-HODE level (PFC): 32.184 ± 2.752 pmol/g
- 10(11)-EpDPE level (PFC): 270.138 ± 86.641 pmol/g
- 11(12)-EpETE level (PFC): 2.775 ± 0.733 pmol/g
- 11(12)-EpETrE level (PFC): 1128.684 ± 354.042 pmol/g
- 11,12-,15-TriHETrE level (PFC): 27.925 ± 2.262 pmol/g
- 11,12-DiHETrE level (PFC): 1.383 ± 0.124 pmol/g
- 11-HETE level (PFC): 275.604 ± 19.707 pmol/g
- 12(13)-EpOME level (PFC): 67.240 ± 21.629 pmol/g
- 12-HEPE level (PFC): 6.850 ± 1.105 pmol/g
- 12-HETE level (PFC): 448.365 ± 69.003 pmol/g
- 12-oxo-ETE level (PFC): 2140.116 ± 142.081 pmol/g
- 13(14)-EpDPE level (PFC): 190.175 ± 59.161 pmol/g
- 13,14-DiHDPE level (PFC): 0.851 ± 0.076 pmol/g
- 13-HODE level (PFC): 45.239 ± 3.261 pmol/g
- 14(15)-EpETE level (PFC): 1.633 ± 0.487 pmol/g
- 14(15)-EpETrE level (PFC): 1037.632 ± 291.994 pmol/g
- 14,15-DiHETrE level (PFC): 2.498 ± 0.243 pmol/g
- 15(16)-EpODE level (PFC): 0.500 ± 0.121 pmol/g
- 15(S)-HETrE level (PFC): 11.900 ± 1.029 pmol/g
- 15-HETE level (PFC): 313.016 ± 24.240 pmol/g
- 15-oxo-ETE level (PFC): 10.104 ± 1.289 pmol/g
- 16(17)-EpDPE level (PFC): 195.454 ± 58.684 pmol/g
- 16,17-DiHDPE level (PFC): 1.154 ± 0.110 pmol/g
- 17(18)-EpETE level (PFC): 3.729 ± 1.017 pmol/g
- 17-HDoHE level (PFC): 6200.527 ± 739.211 pmol/g
- 19(20)-EpDPE level (PFC): 353.450 ± 99.156 pmol/g
- 19,20-DiHDPE level (PFC): 7.491 ± 0.703 pmol/g
- EKODE level (PFC): 12.663 ± 1.143 pmol/g
- LTB3 level (PFC): 53.423 ± 26.072 pmol/g
- PGD2 level (PFC): 439.532 ± 37.011 pmol/g
- PGE2 level (PFC): 137.389 ± 14.051 pmol/g
- PGF2a level (PFC): 431.431 ± 34.510 pmol/g
- TXB2 level (PFC): 246.160 ± 16.777 pmol/g
- 4,5-DiHDPE level (hippocampus): 1.572 ± 0.704 pmol/mL
- 5(6)-EpETrE level (hippocampus): 917.184 ± 134.826 pmol/mL
- 5,6-DiHETrE level (hippocampus): 0.470 ± 0.051 pmol/mL
- 5-HEPE level (hippocampus): 2.917 ± 0.708 pmol/mL
- 5-HETE level (hippocampus): 16.705 ± 0.992 pmol/mL
- 5-oxo-ETE level (hippocampus): 94.461 ± 9.488 pmol/mL
- 6-keto-PGF1a level (hippocampus): 113.103 ± 15.509 pmol/mL
- 7(8)-EpDPE level (hippocampus): 460.824 ± 81.977 pmol/mL
- 8(9)-EpETE level (hippocampus): 3.435 ± 0.784 pmol/mL
- 8(9)-EpETrE alt level (hippocampus): 89.694 ± 12.609 pmol/mL
- 8(9)-EpETrE level (hippocampus): 971.2 ± 484.7 pmol/mL
- 8-HEPE level (hippocampus): 1.415 ± 0.182 pmol/mL
- 8-HETE level (hippocampus): 5.383 ± 0.796 pmol/mL
- 9(10)-EpOME level (hippocampus): 9.131 ± 1.032 pmol/mL
- 9,10,13-TriHOME level (hippocampus): 29.123 ± 5.450 pmol/mL
- 9,12,13-TriHOME level (hippocampus): 51.599 ± 10.194 pmol/mL
- 9-HETE level (hippocampus): 2.073 ± 0.532 pmol/mL
- 9-HODE level (hippocampus): 31.282 ± 6.681 pmol/mL
- 10(11)-EpDPE level (hippocampus): 40.179 ± 5.185 pmol/mL
- 11(12)-EpETE level (hippocampus): 1.254 ± 0.537 pmol/mL
- 11(12)-EpETrE level (hippocampus): 254.371 ± 33.701 pmol/mL
- 11,12-,15-TriHETrE level (hippocampus): 20.278 ± 1.789 pmol/mL
- 11,12-DiHETrE level (hippocampus): 0.914 ± 0.053 pmol/mL
- 11-HETE level (hippocampus): 261.315 ± 27.149 pmol/mL
- 12(13)-EpOME level (hippocampus): 11.355 ± 1.474 pmol/mL
- 12-HEPE level (hippocampus): 9.094 ± 3.984 pmol/mL
- 12-HETE level (hippocampus): 131.250 ± 40.185 pmol/mL
- 12-oxo-ETE level (hippocampus): 1245.436 ± 206.406 pmol/mL
- 13(14)-EpDPE level (hippocampus): 27.748 ± 3.955 pmol/mL
- 13,14-DiHDPE level (hippocampus): 0.516 ± 0.089 pmol/mL
- 13-HODE level (hippocampus): 54.648 ± 8.929 pmol/mL
- 14(15)-EpETE level (hippocampus): 0.712 ± 0.184 pmol/mL
- 14(15)-EpETrE level (hippocampus): 241.703 ± 26.592 pmol/mL
- 14,15-DiHETrE level (hippocampus): 1.183 ± 0.095 pmol/mL
- 15(16)-EpODE level (hippocampus): 2.750 ± 0.907 pmol/mL
- 15(S)-HETrE level (hippocampus): 7.994 ± 1.430 pmol/mL
- 15-HETE level (hippocampus): 263.402 ± 29.963 pmol/mL
- 15-oxo-ETE level (hippocampus): 8.232 ± 0.652 pmol/mL
- 16(17)-EpDPE level (hippocampus): 29.112 ± 4.286 pmol/mL
- 16,17-DiHDPE level (hippocampus): 0.675 ± 0.093 pmol/mL
- 17(18)-EpETE level (hippocampus): 1.592 ± 0.499 pmol/mL
- 17-HDoHE level (hippocampus): 5997.276 ± 762.508 pmol/mL
- 19(20)-EpDPE level (hippocampus): 55.856 ± 8.656 pmol/mL
- 19,20-DiHDPE level (hippocampus): 5.359 ± 0.322 pmol/mL
- EKODE level (hippocampus): 11.362 ± 1.014 pmol/mL
- LTB3 level (hippocampus): 13.669 pmol/mL
- PGD2 level (hippocampus): 349.020 ± 34.288 pmol/mL
- PGE2 level (hippocampus): 68.947 ± 7.203 pmol/mL
- PGF2a level (hippocampus): 314.752 ± 30.178 pmol/mL
- TXB2 level (hippocampus): 198.203 ± 24.835 pmol/mL

Source: patent US12357598B2, “Treatment of neurodevelopmental disorders” (THE REGENTS OF THE UNIVERSITY OF CALIFORNIA, priority 2018, dated 2025)
